Measurements as given in patent US20240269139A1, “COMPOUNDS FOR TARGETED PROTEIN DEGRADATION OF KINASES” (DANA-FARBER CANCER INSTITUTE, INC., priority 2020, published 2024).
Where two headings read alike, the source gives them in different places.

Columns and labels:
Assay type in all cases: cell-based
[1] = target: protein kinases (human kinome) (Homo sapiens, UniProt P30291); conditions: for logFC of WEE1: WEE1 P30291-1
From the text: (§1) Although development of targeted protein degraders requires a POI binder, among already-liganded proteins such as kinases, it was hypothesized that different targets would have a different propensity for current approaches to degrader-mediated destruction, which was termed ‘degradability’. […] It was rationalized that the probability of identifying the same kinase as a false positive in multiple treatments is low, therefore this analysis served to also assess the robustness of our data and subsequent interpretations. […] Overall, 62 protein kinases were degraded in more than 10 independent treatments, and remarkably, 9 of these (CDK4, AURKA, FER, WEE1, BLK. LIMK2, CDK6, GAK, LIMK1) were each degraded in at least 40 of the 154 independent treatments, emphasizing their predisposition to induced degradation (FIG. 1G; Appendix I).
(§2) Next, the frequency of degradation assessment was corrected for over-representation of molecules in the full dataset by omitting replicate profiling of compounds under different experimental conditions, to remove any bias. […] Unsurprisingly, the top degradable kinases mirror those from the previous analysis (CDK4, AURKA, FER, WEE1, BLK), confirming that in sufficiently large datasets, even with over-representation of certain molecules, frequency of degradation is a good measure of general tractability.

[2] = target: protein kinases (human kinome) (Homo sapiens, UniProt P11802)
From the text: as §1, §2

[3] = target: protein kinases (human kinome) (Homo sapiens, UniProt Q00534); conditions: for logFC CDK6: CDK6 (Q00534), direction down; for logFC of CDK6 (Q00534): down
From the text: as §1, §2

[4] = target: protein kinases (human kinome) (Homo sapiens, UniProt Q15118); conditions: PDK1 Q15118; experiment wp084
From the text: as §1, §2

[5] = target: protein kinases (human kinome) (Homo sapiens, UniProt P53671); conditions: for logFC of LIMK2: LIMK2 P53671
From the text: as §1, §2

[6] = target: T1, protein kinases (human kinome) (Homo sapiens, UniProt Q08881); conditions: experiment wp134
T1 sequence (Q08881 1-620): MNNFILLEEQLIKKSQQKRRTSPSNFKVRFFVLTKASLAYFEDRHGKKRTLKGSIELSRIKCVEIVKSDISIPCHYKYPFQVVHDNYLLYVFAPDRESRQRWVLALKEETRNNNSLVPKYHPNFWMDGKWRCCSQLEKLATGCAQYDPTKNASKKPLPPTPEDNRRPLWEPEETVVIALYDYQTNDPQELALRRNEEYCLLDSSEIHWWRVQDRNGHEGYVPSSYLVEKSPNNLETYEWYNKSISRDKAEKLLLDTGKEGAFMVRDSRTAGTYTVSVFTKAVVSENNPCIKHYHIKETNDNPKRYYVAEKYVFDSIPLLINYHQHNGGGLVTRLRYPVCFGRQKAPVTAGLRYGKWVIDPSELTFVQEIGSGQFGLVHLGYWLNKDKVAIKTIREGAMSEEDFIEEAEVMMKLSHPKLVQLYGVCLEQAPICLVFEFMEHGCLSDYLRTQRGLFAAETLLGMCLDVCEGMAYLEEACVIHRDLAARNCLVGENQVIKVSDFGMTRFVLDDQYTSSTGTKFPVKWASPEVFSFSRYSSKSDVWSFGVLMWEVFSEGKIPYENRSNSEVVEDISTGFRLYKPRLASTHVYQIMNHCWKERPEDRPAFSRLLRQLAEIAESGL
From the text: as §1, §2

[7] = target: protein kinases (human kinome) (Homo sapiens, UniProt P41240); conditions: experiment wp045
From the text: as §1, §2

[8] = target: protein kinases (human kinome) (Homo sapiens, UniProt P51451); conditions: for logFC of BLK (P51451): down
From the text: as §1, §2

[9] = target: protein kinases (human kinome) (Homo sapiens, UniProt P42684)
From the text: as §1, §2

[10] = target: protein kinases (human kinome) (Homo sapiens, UniProt Q16539)
From the text: as §1, §2

[11] = test system: protein kinases (human kinome); conditions: for logFC MAPK14: experiment wp047
From the text: as §1, §2

[12] = target: protein kinases (human kinome) (Homo sapiens, UniProt Q2M2I8); conditions: experiment wp134
From the text: as §1, §2

[13] = target: T2, protein kinases (human kinome) (Homo sapiens, UniProt O14965)
T2 sequence (O14965 1-403): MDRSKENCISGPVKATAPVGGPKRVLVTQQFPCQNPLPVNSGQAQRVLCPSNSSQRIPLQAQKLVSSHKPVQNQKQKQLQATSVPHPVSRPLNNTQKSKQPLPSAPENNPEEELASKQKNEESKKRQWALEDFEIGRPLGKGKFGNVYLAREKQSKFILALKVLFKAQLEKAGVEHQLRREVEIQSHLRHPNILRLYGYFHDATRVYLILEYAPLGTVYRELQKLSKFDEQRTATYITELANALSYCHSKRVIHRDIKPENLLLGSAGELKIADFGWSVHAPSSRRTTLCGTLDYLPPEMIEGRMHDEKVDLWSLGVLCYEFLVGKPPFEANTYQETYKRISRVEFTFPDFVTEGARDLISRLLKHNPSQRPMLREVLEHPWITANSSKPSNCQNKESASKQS
From the text: as §1, §2

[14] = target: T3, protein kinases (human kinome) (Homo sapiens, UniProt Q9UEE5); conditions: STK17A Q9UEE5; experiment wp149
T3 sequence (Q9UEE5 1-414): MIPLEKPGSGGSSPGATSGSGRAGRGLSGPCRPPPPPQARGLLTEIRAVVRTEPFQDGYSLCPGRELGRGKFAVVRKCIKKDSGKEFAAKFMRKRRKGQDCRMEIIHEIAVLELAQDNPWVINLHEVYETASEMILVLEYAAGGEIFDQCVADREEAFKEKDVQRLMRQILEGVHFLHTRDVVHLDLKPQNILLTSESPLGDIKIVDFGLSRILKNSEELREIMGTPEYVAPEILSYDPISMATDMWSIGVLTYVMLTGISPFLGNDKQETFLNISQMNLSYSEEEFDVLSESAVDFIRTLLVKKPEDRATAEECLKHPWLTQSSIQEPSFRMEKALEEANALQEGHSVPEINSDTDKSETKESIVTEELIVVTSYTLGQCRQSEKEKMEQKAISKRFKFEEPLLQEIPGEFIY
From the text: as §1, §2

[15] = target: protein kinases (human kinome) (Homo sapiens, UniProt P53667); conditions: LIMK1 (P53667-1), experiment wp149
From the text: as §1, §2

[16] = AURKB Q96GD4-5, experiment wp080

Sequence of protein kinases (human kinome) (Homo sapiens, UniProt P30291) (P30291 whole entry): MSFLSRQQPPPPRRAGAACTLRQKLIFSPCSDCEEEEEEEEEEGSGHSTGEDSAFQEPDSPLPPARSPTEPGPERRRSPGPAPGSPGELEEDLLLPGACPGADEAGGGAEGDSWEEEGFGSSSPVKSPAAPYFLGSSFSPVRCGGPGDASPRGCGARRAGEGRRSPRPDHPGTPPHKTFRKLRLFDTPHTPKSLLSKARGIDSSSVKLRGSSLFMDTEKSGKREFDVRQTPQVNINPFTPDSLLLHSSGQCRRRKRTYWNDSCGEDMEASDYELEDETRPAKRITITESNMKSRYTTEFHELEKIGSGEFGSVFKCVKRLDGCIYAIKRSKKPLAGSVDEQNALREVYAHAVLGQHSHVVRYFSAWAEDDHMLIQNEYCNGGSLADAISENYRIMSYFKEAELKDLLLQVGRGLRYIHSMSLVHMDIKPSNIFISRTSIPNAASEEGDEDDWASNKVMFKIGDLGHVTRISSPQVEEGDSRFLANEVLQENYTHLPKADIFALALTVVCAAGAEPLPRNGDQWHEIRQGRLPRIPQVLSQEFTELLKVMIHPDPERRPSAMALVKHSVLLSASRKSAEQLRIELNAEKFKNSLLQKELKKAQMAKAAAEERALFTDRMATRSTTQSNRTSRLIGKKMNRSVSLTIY
Sequence of protein kinases (human kinome) (Homo sapiens, UniProt P11802) (P11802 whole entry): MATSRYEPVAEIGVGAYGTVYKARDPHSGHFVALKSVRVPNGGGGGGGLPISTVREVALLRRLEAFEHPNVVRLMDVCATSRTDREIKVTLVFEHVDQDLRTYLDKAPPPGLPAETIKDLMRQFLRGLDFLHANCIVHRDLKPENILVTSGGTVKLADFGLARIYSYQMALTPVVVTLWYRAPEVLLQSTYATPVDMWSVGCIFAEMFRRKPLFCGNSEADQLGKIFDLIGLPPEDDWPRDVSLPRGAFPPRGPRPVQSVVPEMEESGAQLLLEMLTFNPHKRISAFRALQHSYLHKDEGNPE
Sequence of protein kinases (human kinome) (Homo sapiens, UniProt Q00534) (Q00534 whole entry): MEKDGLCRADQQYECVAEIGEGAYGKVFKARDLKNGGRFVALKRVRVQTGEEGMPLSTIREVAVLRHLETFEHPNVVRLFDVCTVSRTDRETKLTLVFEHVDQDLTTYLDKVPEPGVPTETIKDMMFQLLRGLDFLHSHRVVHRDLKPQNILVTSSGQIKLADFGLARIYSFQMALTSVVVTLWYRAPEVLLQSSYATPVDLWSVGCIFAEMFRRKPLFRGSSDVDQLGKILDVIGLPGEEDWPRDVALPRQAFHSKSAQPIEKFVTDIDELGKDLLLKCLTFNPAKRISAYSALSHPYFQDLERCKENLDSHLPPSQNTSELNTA
Sequence of protein kinases (human kinome) (Homo sapiens, UniProt P53671) (P53671 whole entry): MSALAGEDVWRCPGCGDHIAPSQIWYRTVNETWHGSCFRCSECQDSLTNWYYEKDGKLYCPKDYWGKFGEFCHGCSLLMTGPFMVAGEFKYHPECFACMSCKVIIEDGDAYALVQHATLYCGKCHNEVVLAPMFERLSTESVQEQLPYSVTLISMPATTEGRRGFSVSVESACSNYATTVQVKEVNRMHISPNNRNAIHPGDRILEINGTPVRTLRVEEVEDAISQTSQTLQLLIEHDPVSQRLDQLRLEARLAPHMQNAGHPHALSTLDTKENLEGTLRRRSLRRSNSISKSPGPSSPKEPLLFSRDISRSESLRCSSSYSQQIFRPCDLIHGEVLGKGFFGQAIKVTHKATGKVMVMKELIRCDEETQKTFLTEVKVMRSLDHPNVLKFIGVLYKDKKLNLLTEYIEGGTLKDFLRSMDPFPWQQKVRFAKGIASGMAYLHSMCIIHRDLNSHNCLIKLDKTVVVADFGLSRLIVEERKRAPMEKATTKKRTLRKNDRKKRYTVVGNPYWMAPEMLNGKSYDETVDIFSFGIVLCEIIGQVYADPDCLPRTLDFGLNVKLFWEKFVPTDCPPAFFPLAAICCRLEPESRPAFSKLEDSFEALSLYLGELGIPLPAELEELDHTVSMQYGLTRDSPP
Sequence of protein kinases (human kinome) (Homo sapiens, UniProt P51451) (P51451 whole entry): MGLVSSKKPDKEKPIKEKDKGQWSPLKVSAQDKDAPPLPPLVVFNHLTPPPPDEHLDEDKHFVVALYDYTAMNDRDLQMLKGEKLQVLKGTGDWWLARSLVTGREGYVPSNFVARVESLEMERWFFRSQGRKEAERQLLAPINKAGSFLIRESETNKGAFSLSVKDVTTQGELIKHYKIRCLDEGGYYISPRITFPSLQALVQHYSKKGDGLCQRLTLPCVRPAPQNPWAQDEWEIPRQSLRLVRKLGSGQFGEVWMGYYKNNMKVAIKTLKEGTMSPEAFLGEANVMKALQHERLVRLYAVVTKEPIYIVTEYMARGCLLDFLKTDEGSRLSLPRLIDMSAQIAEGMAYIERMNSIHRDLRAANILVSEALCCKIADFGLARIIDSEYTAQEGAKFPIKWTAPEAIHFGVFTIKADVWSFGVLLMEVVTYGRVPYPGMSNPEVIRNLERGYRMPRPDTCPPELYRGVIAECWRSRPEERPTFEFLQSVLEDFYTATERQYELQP
Sequence of protein kinases (human kinome) (Homo sapiens, UniProt Q2M2I8) (Q2M2I8 whole entry): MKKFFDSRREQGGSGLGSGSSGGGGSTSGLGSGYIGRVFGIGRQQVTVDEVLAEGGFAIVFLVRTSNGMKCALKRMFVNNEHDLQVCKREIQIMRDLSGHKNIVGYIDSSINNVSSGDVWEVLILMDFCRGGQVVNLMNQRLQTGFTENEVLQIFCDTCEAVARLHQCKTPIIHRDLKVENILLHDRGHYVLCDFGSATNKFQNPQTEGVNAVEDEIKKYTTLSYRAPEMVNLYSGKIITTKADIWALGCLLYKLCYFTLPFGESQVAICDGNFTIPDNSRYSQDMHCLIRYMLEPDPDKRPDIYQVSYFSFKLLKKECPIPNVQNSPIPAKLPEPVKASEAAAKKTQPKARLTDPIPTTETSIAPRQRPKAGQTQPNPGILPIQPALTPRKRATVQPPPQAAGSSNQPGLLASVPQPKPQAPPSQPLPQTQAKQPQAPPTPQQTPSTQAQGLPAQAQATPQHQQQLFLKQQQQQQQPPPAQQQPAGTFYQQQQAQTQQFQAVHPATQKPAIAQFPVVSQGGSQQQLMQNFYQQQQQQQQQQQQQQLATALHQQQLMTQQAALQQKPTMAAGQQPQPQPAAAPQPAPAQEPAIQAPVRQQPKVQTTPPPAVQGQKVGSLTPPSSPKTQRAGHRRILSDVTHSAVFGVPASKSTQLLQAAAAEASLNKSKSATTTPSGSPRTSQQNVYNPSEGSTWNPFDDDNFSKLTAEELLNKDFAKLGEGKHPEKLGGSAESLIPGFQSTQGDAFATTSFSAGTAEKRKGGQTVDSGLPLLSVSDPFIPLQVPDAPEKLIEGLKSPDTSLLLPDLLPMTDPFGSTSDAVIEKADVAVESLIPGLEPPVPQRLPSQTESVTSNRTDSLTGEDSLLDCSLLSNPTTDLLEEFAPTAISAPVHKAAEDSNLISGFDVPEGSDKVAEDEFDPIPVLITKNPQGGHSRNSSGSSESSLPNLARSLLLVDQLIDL
Sequence of protein kinases (human kinome) (Homo sapiens, UniProt P41240) (P41240 whole entry): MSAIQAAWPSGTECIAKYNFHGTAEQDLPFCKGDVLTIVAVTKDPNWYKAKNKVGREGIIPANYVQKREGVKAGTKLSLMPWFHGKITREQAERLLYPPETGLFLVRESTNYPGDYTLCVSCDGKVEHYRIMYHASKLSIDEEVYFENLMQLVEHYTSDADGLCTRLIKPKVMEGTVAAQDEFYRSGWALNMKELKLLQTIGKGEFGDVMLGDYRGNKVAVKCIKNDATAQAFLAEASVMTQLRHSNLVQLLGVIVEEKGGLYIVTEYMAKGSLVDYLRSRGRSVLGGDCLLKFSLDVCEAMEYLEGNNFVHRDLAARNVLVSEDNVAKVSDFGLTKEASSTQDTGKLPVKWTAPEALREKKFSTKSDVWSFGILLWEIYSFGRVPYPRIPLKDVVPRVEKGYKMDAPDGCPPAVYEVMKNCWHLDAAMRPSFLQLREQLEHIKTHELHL
Sequence of protein kinases (human kinome) (Homo sapiens, UniProt P53667) (P53667 whole entry): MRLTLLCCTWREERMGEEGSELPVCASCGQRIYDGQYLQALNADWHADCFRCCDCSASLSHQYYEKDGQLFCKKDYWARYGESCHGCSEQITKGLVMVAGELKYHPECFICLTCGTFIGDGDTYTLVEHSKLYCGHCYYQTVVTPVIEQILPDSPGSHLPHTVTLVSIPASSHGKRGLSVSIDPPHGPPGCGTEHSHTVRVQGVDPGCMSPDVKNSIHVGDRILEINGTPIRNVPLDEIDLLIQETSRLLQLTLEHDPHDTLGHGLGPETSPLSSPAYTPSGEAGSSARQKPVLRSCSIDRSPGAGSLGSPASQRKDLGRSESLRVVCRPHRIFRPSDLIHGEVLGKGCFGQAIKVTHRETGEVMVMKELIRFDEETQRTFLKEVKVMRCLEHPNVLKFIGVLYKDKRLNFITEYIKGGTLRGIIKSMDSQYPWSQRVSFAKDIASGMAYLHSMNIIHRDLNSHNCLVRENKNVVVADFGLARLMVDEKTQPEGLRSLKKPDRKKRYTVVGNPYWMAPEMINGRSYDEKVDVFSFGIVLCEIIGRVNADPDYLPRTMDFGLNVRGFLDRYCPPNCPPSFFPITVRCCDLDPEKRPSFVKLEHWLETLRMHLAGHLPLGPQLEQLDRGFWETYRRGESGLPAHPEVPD
Sequence of protein kinases (human kinome) (Homo sapiens, UniProt Q15118) (Q15118 29-436): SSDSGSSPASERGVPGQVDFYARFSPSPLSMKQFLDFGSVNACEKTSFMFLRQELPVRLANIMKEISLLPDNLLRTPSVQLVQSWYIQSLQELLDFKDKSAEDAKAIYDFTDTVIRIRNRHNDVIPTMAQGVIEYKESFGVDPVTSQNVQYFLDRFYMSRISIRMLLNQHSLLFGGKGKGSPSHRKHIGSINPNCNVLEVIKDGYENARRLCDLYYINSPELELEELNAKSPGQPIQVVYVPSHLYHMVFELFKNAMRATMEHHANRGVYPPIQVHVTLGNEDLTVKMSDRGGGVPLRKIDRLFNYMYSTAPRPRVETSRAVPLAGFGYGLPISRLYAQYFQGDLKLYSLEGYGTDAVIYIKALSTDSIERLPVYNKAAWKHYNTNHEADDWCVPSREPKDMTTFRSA

CC(=O)c1c(C)c2cnc(Nc3ccc(N4CCN(CCCCNC(=O)COc5cccc6c5C(=O)N(C5CCC(=O)NC5=O)C6=O)CC4)cn3)nc2n(C2CCCC2)c1=O (stereo not shown) [BSJ.03.204]
logFC of WEE1 ([1]; experiment wp084): −0.5774 | logFC of WEE1 ([1]; experiment wp137): −0.6759 | logFC WEE1 (P30291-1) ([1]; experiment wp084): −0.5774 | logFC WEE1 (P30291-1) ([1]; experiment wp137): −0.6759 | logFC CDK4 (P11802) ([2]; experiment wp084): −2.162 | logFC CDK4 (P11802) ([2]; experiment wp137): −2.118 | logFC CDK6 ([3]; experiment wp084): −3.574 | logFC CDK6 ([3]; experiment wp137): −2.866 | logFC of CDK6 (Q00534) ([3]; Experiment wp084): −3.574 | logFC of CDK6 (Q00534) ([3]; Experiment wp137): −2.866 | logFC [4]: −0.3767 | logFC PDK1 [4]: −0.3767

COc1cc(C)c(Sc2cnc(NC(=O)c3ccc(N4CCN(CCCCCCCNC(=O)COc5cccc6c5C(=O)N(C5CCC(=O)NC5=O)C6=O)CC4)cc3)s2)cc1C(=O)N1CCN(C(C)=O)CC1 (stereo not shown) [BSJ.05.037]
logFC of LIMK2 ([5]; experiment wp134): −0.4981 | logFC ITK (Q08881) [6]: −1.816

Cc1nc(Nc2ncc(C(=O)Nc3c(C)cccc3Cl)s2)cc(N2CCN(CC(=O)NCCCCNC(=O)COc3cccc4c3C(=O)N(C3CCC(=O)NC3=O)C4=O)CC2)n1 (stereo not shown) [DB.3.291]
logFC of CSK ([7]; Accession P41240): −2.257 | logFC CSK ([7]; CSK (P41240), down): −2.257 | logFC of BLK ([8]; BLK P51451, experiment wp045): −0.5857 | logFC of BLK (P51451) ([8]; Experiment wp045): −0.5857 | logFC WEE1 (P30291-1) ([1]; experiment wp045): −0.4161 | logFC ([9]; ABL2 (P42684) protein abundance, degrader vs DMSO, down): −0.3739 | logFC ABL2 (P42684) ([9]; Experiment wp045): −0.3739

Cc1ccc(NC(=O)c2cccc(C(C)(C)C#N)c2)cc1Nc1ccc2ncn(CCOCCOCCC(=O)N[C@H](C(=O)N3C[C@H](O)C[C@H]3C(=O)NCc3ccc(-c4scnc4C)cc3)C(C)(C)C)c(=O)c2c1 [DD.02.198]
logFC ([10]; MAPK14 (Q16539) protein abundance, degrader vs DMSO, down): −1.387 | logFC MAPK14 ([10]; MAPK14, accession Q16539, experiment wp047, direction of change down): −1.387 | logFC MAPK14 ([11]; MAPK14, accession Q16539-2, direction of change down): −0.617 | logFC MAPK14 ([11]; MAPK14 Q16539-2): −0.617

CS(=O)(=O)c1ccc(-c2cccn3nc(Nc4cccc(N5CCN(CCCCCCNC(=O)COc6cccc7c6C(=O)N(C6CCC(=O)NC6=O)C7=O)CC5)c4)nc23)cc1 (stereo not shown) [JWG.120]
logFC AAK1 ([12]; AAK1 (Q2M218-1), down): −0.3362 | logFC AAK1 ([12]; AAK1, accession Q2M218-1, direction of change down): −0.3362 | logFC AURKA (O14965) ([13]; experiment wp134): −1.562

CC(=O)c1c(C)c2cnc(Nc3ccc(N4CCN(CC(=O)NCCOCCOCCOCCNc5cccc6c5C(=O)N(C5CCC(=O)NC5=O)C6=O)CC4)cn3)nc2n(C2CCCC2)c1=O (stereo not shown) [YKL.6.102]
logFC WEE1 (P30291-1) ([1]; experiment wp005): −0.3649 | logFC CDK4 (P11802) ([2]; experiment wp005): −0.642

CN1c2ccccc2C(=O)Nc2cnc(Nc3ccc(N4CCN(C(=O)CCOCCNc5cccc6c5C(=O)N(C5CCC(=O)NC5=O)C6=O)CC4)cc3)nc21 (stereo not shown) [ZNL.03.127]
logFC BLK ([8]; BLK (P51451), direction down, experiment wp149): −0.5024 | logFC of BLK (P51451) ([8]; Experiment wp149): −0.5024 | logFC [14]: −0.4605 | logFC STK17A [14]: −0.4605 | logFC TNK2 (Q07912-3) ([11]; Experiment wp149, direction down): −0.8778 | logFC ([11]; TNK2 (Q07912-3), experiment wp149, direction down): −0.8778 | logFC LIMK1 ([15]; direction down): −0.4764 | logFC LIMK1 ([15]; down): −0.4764 | logFC LIMK2 ([5]; LIMK2 (P53671), experiment wp149, down): −0.3944 | logFC of LIMK2 ([5]; experiment wp149): −0.3944

COc1cc(Nc2ncc3c(n2)-c2ccc(Cl)cc2C(c2c(F)cccc2OC)=NC3)ccc1C(=O)NCCCOCCOCCOCCCNC(=O)COc1cccc2c1C(=O)N(C1CCC(=O)NC1=O)C2=O (stereo not shown) [dAURK.4]
logFC [11, 16]: −0.3932 | logFC AURKB [11, 16]: −0.3932 | logFC AURKA (O14965) ([13]; experiment wp080): −1.055
